Data set [1] concerns model of spinal trauma in the mouse. The data set can be described thus: Beam balance test in a model of spinal trauma in the mouse. The format is in vivo. The note with it: for Travel time (% deficiency): 0.01 mg/kg po at +4 h then daily; for Travel time (% deficiency) / Travel time (% motor function deficiency): 100% = trauma + carrier; for Balance beam test result (time to reach the opposite end of the beam): 0.01 mg/kg orally 4 h after lesion then daily, OF1 mice; for Travel time (% motor function deficiency): 0.03 mg/kg po at +4 h and +6 h then daily. As for the experimental part: The effects of 4-cyclopropylmethoxy-N-(3,5-dichloro-1-oxidopyridin-4-yl)-5-(methoxy)pyridine-2-carboxamide used according to the invention were evaluated in a model of spinal trauma in the mouse using the beam balance test (P. Barnéoud, NeuroReport 1997, 8, 2861-2865).
The Beam Balance test consists in placing the mouse at the end of a horizontal beam 30 cm long and 1.5 cm wide, raised 20 cm above the ground. The time required for the mouse to reach the opposite end of the beam is measured. The test is stopped after 12 seconds.
[…] female OF1 mice (Iffa Credo Lyon, France) weighing 12 to 14 g are placed in experimental cages (32×21×14 cm) provided with an endless supply of food and water, at the controlled temperature of 22±1° C.
The mice are subjected to a pre-learning phase which allows them to become familiar with the evaluation test and allows them to reach an optimal and identical level of performance.
The animals are subsequently divided up into three groups, and then a trauma is induced in a controlled manner in two of the three groups of mice before the beginning of the test phase.
This trauma consists of a lesion of the spinal cord located at the level of the thoracic vertebra Th8. The lesion is generated by 3 successive cycles of freezing-thawing by applying liquid nitrogen.
The functional consequences of the trauma are then measured at days 2, 7, 14 and 21 and also at day 28.
The following groups were formed: • Group 1 (no trauma) is composed of control animals which are not subjected to any trauma. • Group 2 (trauma alone) is composed of traumatized animals to which one dose per day of carrier (methyl-cellulose (MC) (0.6%) +tween-80 (0.5%) in water) is administered. • Group 3 (trauma+active ingredient 0.01 mg/kg at +4 hours) receives a solution containing 4-cyclopropylmethoxy-N-(3,5-dichloro-1-oxidopyridin-4-yl)-5-(methoxy)pyridine-2-carboxamide (0.01 mg/kg) in the carrier (MC (0.6%)+tween-80 (0.5%) in water), orally, 4 hours after the lesion, and then daily, orally, for 4 weeks after the trauma.
An experiment similar to that of Example 1 was carried out by administering ((4R)-4-[3-(cyclopentyloxy)-4-methoxyphenyl]pyrrolidine-2-one) to 34-week-old OF1 mice (Charles River, France) weighing 12 to 14 g, in the treatment of spinal cord traumas.
The mice were tested in the beam balance test, according to operating conditions identical to those described above.
The following groups were formed: • Group A (no trauma) is composed of control animals which are not subjected to any trauma. • Group B (trauma alone) is composed of traumatized animals to which one dose per day of carrier (2% PEG 200) is administered. • Group C (trauma+active ingredient 0.03 mg/kg at +4 hours) receives a solution containing (R)-(−)-Rolipram (0.03 mg/kg) in the carrier (2% PEG 200), orally, 4 hours and 6 hours after the lesion, and then daily, orally, for 4 weeks after the trauma.
The results obtained for each group of mice are expressed as percentage (%) deficiency of motor functions in the traumatized mice compared with the non-traumatized mice:
To do this, the difference in time taken between the group of mice tested to which (R)-(−)-Rolipram was administered (group C) and the group of non-traumatized mice (group A) is measured and expressed as a percentage relative to the difference in time taken between the traumatized mice to which one dose per day of carrier was administered (group B) and the time taken by the non-traumatized mice (group A). This ratio therefore gives the percentage deficiency in motor functions of the traumatized mice compared with the non-traumatized mice.
This calculation of the percentage deficiency of the mice tested is performed according to the following formula: % deficiency of group (c)=[(mean of the travel time of group C)−(mean of the travel time of group A)]/[(mean of the travel time of group B)−(mean of the travel time of group A)]

The test system of the next data set is ferret. Description: Evaluation of emetic effects in the ferret. The format is in vivo. Particulars: observed up to 6 hours after administration; for Emetic effects (vomiting): ferrets. As for the experimental part: The emetic capacity of 4-cyclopropylmethoxy-N-(3,5-dichloro-1-oxidopyridin-4-yl)-5-(methoxy)pyridine-2-carboxamide was evaluated in the ferret. Two groups of ferrets were used, the first being given the carrier (PEG 200) and the second being given 4-cyclopropyl-methoxy-N-(3,5-dichloro-1-oxidopyridin-4-yl)-5-(methoxy)pyridine-2-carboxamide in solution in the carrier (PEG 200), by oral gavage, at doses of 0.05 mg/kg and 0.1 mg/kg. The animals were observed continually for the 2 hours following administration and then every hour up to 6 hours after administration. The clinical signs (in particular retching and vomiting) were noted.
The emetic capacity of […] was evaluated in the ferret. Two groups of ferrets were used, the first receiving the carrier (PEG200) and the second receiving […] in solution in the carrier (PEG200), by oral gavage, at doses of 0.05 mg/kg and 0.1 mg/kg. The animals were observed continually for the 2 hours following administration and then every hour up to 6 hours after administration. The clinical signs were noted.

As to `COc1cnc(C(=O)Nc2c(Cl)c[n+]([O-])cc2Cl)cc1OCC1CC1` [4-cyclopropylmethoxy-N-(3,5-dichloro-1-oxidopyridin-4-yl)-5-(methoxy)pyridine-2-carboxamide], the “Degree of motor function deficiency compared with (R)-(−)-Rolipram” value in data set [1] (0.01 mg/kg po versus (R)-(−)-Rolipram 0.03 mg/kg po, traumatized mice) was “less than that of the animals treated with (R)-(−)-Rolipram”. The “Travel time (% deficiency)” value in data set [1] (D + 2, 0% = no trauma) worked out at 84%; in data set [1] (D + 7, 0% = no trauma), 72%; in data set [1] (D + 14, 0% = no trauma), 49%; in data set [1] (D + 21, 0% = no trauma), 60%; in data set [1] (D + 28, 0% = no trauma), 44%; in data set [1] (Mean of D + 2 to D + 28), 62%. The “Balance beam test result (time to reach the opposite end of the beam)” value is 10.71 s in data set [1] (D + 2 after trauma, test stopped after 12 seconds); 8.67 s in data set [1] (D + 7 after trauma); 6.35 s in data set [1] (D + 14 after trauma); 6.17 s in data set [1] (D + 21 after trauma); 5.18 s in data set [1] (D + 28 after trauma). The “Re-establishment of motor functions versus non-treated traumatized animals” value in data set [1] (traumatized mice, curative administration (group 3 vs group 2)) was “better re-establishment in terms of motor functions”. The “Emetic effects (retching and vomiting)” value in the data set with ferret (0.1 mg/kg by oral gavage in PEG 200, 5 ferrets) is “no retching or vomiting”.
Take `COc1ccc([C@@H]2CNC(=O)C2)cc1OC1CCCC1` [(R)-(−)-Rolipram, ((4R)-4-[3-(cyclopentyloxy)-4-methoxyphenyl]pyrrolidine-2-one), reference compound]: the “Travel time (% motor function deficiency)” value in data set [1] (D + 2, 0% = no trauma) was 110%; in data set [1] (D + 7, 0% = no trauma) it was 67%; in data set [1] (D + 14, 0% = no trauma), 48%; in data set [1] (D + 21, 0% = no trauma) it was 122%; in data set [1] (D + 28, 0% = no trauma) it was 108%; in data set [1] (Mean of D + 2 to D + 28), 91%. Moreover, the “Emetic effects (vomiting)” value with ferret (0.05 mg/kg by oral gavage in PEG200) and with ferret (0.1 mg/kg by oral gavage in PEG200) was “induces vomiting” each time.
